Laboratory results as given in ChEMBL document CHEMBL4393743, “Anti-tumor activity evaluation of novel tubulin and HDAC dual-targeting inhibitors” (Bioorg Med Chem Lett, 2019).
pIC50: −log10 of the molar value.

What was measured:
[1] = system: A549; experiment: Induction of cell cycle arrest in human A549 cells assessed as accumulation at G0/G1 phase at 0.3 uM incubated for 36 hrs by propidium iodide staining based flow cytometry (reference value: 72.51%); assay type: functional
[2] = target: Histone deacetylase 1 (Homo sapiens, UniProt Q13547); experiment: Inhibition of HDAC1 (unknown origin) using Boc-Lys(Ac)-AMC as substrate incubated for 60 mins by fluorescence assay
Histone deacetylase 1, sequence (Q13547 whole entry): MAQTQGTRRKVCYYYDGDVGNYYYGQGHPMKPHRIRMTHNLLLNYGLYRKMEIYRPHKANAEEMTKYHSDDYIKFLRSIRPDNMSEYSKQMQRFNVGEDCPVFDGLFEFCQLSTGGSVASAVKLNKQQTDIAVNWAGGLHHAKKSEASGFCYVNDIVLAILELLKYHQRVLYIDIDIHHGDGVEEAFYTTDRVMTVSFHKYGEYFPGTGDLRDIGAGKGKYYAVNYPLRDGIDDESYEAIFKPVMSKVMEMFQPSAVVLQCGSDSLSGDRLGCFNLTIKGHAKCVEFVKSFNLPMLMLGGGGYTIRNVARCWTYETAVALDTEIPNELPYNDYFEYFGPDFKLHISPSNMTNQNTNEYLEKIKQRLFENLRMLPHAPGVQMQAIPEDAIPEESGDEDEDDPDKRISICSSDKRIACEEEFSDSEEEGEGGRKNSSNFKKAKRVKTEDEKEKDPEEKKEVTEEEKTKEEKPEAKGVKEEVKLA

[3] = system: SGC-7901; experiment: Antiproliferative activity against human SGC7901 cells assessed as cell growth inhibition incubated for 72 hrs by MTT assay; assay type: functional, cell-based; settings: SGC-7901, 72 h
[4] = system: NCI-H460; experiment: Antiproliferative activity against human NCI-H460 cells assessed as cell growth inhibition incubated for 72 hrs by MTT assay; assay type: functional, cell-based; settings: NCI-H460, 72 h
[5] = system: MDA-MB-231; experiment: Antiproliferative activity against human MDA-MB-231 cells assessed as cell growth inhibition incubated for 72 hrs by MTT assay; assay type: functional, cell-based; settings: MDA-MB-231, 72 h
[6] = system: A549; experiment: Induction of apoptosis in human A549 cells assessed as necrotic cells at 0.1 uM incubated for 72 hrs by Annexin V-FITC/propidium iodide-staining based flow cytometric analysis (reference value: 2.76%); assay type: functional
[7] = system: A549; experiment: Induction of apoptosis in human A549 cells assessed as live cells at 10 uM incubated for 72 hrs by Annexin V-FITC/propidium iodide-staining based flow cytometric analysis (reference value: 89.8%); assay type: functional
[8] = system: A549; experiment: Induction of apoptosis in human A549 cells assessed as early apoptotic cells at 10 uM incubated for 72 hrs by Annexin V-FITC/propidium iodide-staining based flow cytometric analysis (reference value: 1.8%); assay type: functional
[9] = system: A549; experiment: Induction of cell cycle arrest in human A549 cells assessed as accumulation at G2/M phase at 0.1 uM incubated for 36 hrs by propidium iodide staining based flow cytometry (reference value: 10.83%); assay type: functional

Compound `COc1ccc(/C=C(\C)C(=O)c2cc(OC)c(OC)c(OC)c2)cc1OCCCC(=O)NO` has an Activity [1] of 46.23%, a pIC50 [2] of 6.00 and a pIC50 [3] of 5.97. For the same compound, the pIC50 [4] was 5.53, the pIC50 [5] was 5.16 and the Activity [6] was 1.51%. For the same compound, the Activity [7] was 54.7%, the Activity [8] was 8.81% and the Activity [9] was 9.47%.
